PMC3581075 (Journal of pharmaceutical sciences, 2011)
Structures can show the parent of a compound that is named as a salt. Where two headings read alike, the source gives them in different places. One block for each molecule: values may come before it.

Columns and labels:
rat hepatocytes [1] = conditions: 2 min, rifampin 10 μM, MK-571 100 μM
OATP1B3 = target: T1, OATP1B3 (Homo sapiens, UniProt Q9NPD5); conditions: on average; p<0.05
T1 sequence (Q9NPD5 1-702): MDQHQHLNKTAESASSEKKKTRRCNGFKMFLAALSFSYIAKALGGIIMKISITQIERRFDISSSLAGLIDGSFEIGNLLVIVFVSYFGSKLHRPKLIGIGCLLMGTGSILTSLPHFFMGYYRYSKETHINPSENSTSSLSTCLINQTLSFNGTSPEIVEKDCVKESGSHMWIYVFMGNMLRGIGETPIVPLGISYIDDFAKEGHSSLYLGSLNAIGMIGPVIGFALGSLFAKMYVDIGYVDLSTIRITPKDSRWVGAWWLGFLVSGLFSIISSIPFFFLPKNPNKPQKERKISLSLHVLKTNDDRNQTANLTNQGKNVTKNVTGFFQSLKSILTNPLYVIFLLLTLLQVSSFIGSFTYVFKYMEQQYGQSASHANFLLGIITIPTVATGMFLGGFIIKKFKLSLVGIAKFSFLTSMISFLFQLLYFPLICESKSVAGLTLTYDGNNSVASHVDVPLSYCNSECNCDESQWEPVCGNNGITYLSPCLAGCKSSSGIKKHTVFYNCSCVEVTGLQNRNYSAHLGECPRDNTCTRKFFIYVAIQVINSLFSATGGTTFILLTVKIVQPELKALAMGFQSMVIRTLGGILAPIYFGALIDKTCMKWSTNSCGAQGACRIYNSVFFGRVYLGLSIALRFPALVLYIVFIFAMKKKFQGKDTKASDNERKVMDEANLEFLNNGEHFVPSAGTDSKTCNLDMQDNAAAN

OATP2B1 = target: T2, OATP2B1 (Homo sapiens, UniProt O94956); conditions: on average; p<0.05
T2 sequence (O94956 1-709): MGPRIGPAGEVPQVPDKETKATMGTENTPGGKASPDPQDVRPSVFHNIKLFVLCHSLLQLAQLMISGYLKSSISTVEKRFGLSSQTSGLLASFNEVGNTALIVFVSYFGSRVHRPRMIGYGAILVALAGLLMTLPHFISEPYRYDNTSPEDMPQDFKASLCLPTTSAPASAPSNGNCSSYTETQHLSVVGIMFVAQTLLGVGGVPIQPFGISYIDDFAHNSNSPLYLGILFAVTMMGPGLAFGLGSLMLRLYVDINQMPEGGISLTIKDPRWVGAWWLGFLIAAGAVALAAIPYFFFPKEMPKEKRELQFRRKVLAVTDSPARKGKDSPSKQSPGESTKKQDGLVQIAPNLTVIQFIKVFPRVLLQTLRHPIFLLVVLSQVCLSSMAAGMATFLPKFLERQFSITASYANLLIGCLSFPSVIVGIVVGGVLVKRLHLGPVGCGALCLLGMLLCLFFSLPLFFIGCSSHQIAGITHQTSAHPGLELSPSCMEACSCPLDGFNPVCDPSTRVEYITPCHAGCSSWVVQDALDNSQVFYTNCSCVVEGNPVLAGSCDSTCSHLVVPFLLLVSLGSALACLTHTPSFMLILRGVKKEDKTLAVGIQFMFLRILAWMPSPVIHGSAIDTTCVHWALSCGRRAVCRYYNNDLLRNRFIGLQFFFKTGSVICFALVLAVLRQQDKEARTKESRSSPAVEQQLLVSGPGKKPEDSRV

rat hepatocytes [2] = test system: rat hepatocytes
[3] = classification by solubility, permeability and extent of metabolism; cited from earlier work
rat hepatocytes [4] = test system: rat hepatocytes; remark: listed apart in the source
pooled human microsomes [5] = assay: Microsome incubations, pooled human microsomes; conditions: propranolol 10 μM; quinidine 30 μM
pooled rat microsomes [6] = assay: Microsome incubations, pooled rat microsomes; conditions: propranolol 10 μM, 0.5 mg/ml microsomes, 30 min, 37°C; rifampin 10 μM, quinidine 30 μM
pooled rat microsomes [7] = test system: pooled rat microsomes
rat hepatocytes [8] = test system: rat hepatocytes; remark: listed apart in the source
pooled human microsomes [9] = test system: pooled human microsomes

Molecule: CC12CCC3c4ccc(OS(=O)(=O)O)cc4CCC3C1CCC2=O (stereo not shown) [[^3H]-estrone sulfate]
- Decrease of uptake in pcMV6 empty vector control vs OATP1B3 transfected cells (OATP1B3): 50%
- Decrease of uptake in pcMV6 empty vector control vs OATP2B1 transfected cells (OATP2B1): 80%

Molecule: CC[C@H](C)[C@H](NC(=O)[C@H](CC(=O)O)NC(=O)[C@H](CC(C)C)NC(=O)[C@H](Cc1cnc[nH]1)NC(=O)[C@@H]1CSSC[C@H](N)C(=O)N[C@@H](CO)C(=O)N[C@H]2CSSC[C@H](NC(=O)[C@H](CCC(=O)O)NC(=O)[C@H](CCCCN)NC(=O)[C@H](CC(=O)O)NC(=O)[C@H](CCSC)NC(=O)[C@H](CC(C)C)NC(=O)[C@H](CO)NC(=O)[C@H](CO)NC2=O)C(=O)N[C@@H](C(C)C)C(=O)N[C@@H](Cc2ccc(O)cc2)C(=O)N[C@@H](Cc2ccccc2)C(=O)N1)C(=O)N[C@H](C(=O)N[C@@H](Cc1c[nH]c2ccccc12)C(=O)O)[C@@H](C)CC [endothelin]
- Inhibition of uptake of losartan in rat hepatocytes (rat hepatocytes [2]): 22%

Molecule: CCCCc1ncc(/C=C(\Cc2cccs2)C(=O)O)n1Cc1ccc(C(=O)O)cc1 [eprosartan]
- BDDCS class [3]: Class 4

Molecule: CC(C)NCC(O)COc1cccc2ccccc12 (stereo not shown) [propranolol]
- BDDCS class [3]: Class 1

Molecule: CO[C@H]1/C=C/O[C@@]2(C)Oc3c(C)c(O)c4c(O)c(c(/C=N/N5CCN(C)CC5)c(O)c4c3C2=O)NC(=O)/C(C)=C\C=C\[C@H](C)[C@H](O)[C@@H](C)[C@@H](O)[C@@H](C)[C@H](OC(C)=O)[C@@H]1C [rifampin]
- Effect on metabolism of losartan in rat microsomes (pooled rat microsomes [7]): no change in metabolism
- Decrease of uptake of losartan in human hepatocytes compared to normal serum (human hepatocytes): 55%
- Change of uptake of eprosartan in rat hepatocytes compared to normal serum (rat hepatocytes [8]): no significant differences

Molecule: IL-6: interleukin-6, tested as uremic toxin
- Inhibition of uptake of losartan in rat hepatocytes (rat hepatocytes [1]; losartan 10 μM, p<0.05, n=4): 28%

Now from value to molecule, other results behind:

- Change of uptake of propranolol in rat hepatocytes (rat hepatocytes [1]; propranolol 10 μM, n=4): not significantly changed
Molecule: CN(C)C(=O)CCSC(SCCC(=O)O)c1cccc(/C=C/c2ccc3ccc(Cl)cc3n2)c1 (stereo not shown) [MK-571]

- Change in AUC of the cumulative metabolite (rat hepatocytes [4]): no change in metabolite formation
Molecule: CCCCc1nc(Cl)c(CO)n1Cc1ccc(-c2ccccc2-c2nn[nH]n2)cc1 [losartan]
- BDDCS class [3]: Class 2

- Effect on metabolism of propranolol in human microsomes (pooled human microsomes [5]): inhibited propranolol metabolism
- Effect on metabolism of propranolol in rat microsomes (pooled rat microsomes [6]): inhibit metabolism
Molecule: C=C[C@H]1C[N@@]2CC[C@H]1C[C@@H]2[C@@H](O)c1ccnc2ccc(OC)cc12 [quinidine]

- Effect on metabolism of losartan in human microsomes (pooled human microsomes [9]): no inhibition of metabolism
- Effect on metabolism of losartan in rat microsomes (pooled rat microsomes [7]): decrease in metabolism
Molecule: Nc1ccc(S(=O)(=O)Nc2ccnn2-c2ccccc2)cc1 [sulfaphenazole]
